Measurements published in ChEMBL document CHEMBL3991601, “The target landscape of clinical kinase drugs” (Science, 2017).
Calls of active or inactive are those of the source.

Assays:
[1] = molecular target: Ribosomal protein S6 kinase alpha-4 (Homo sapiens, UniProt O75676)
[2] = molecular target: Serine/threonine-protein kinase pim-1 (Homo sapiens, UniProt P11309)
[3] = molecular target: T1, Receptor-type tyrosine-protein kinase FLT3 (Homo sapiens, UniProt P36888)
T1 sequence (P36888 whole entry): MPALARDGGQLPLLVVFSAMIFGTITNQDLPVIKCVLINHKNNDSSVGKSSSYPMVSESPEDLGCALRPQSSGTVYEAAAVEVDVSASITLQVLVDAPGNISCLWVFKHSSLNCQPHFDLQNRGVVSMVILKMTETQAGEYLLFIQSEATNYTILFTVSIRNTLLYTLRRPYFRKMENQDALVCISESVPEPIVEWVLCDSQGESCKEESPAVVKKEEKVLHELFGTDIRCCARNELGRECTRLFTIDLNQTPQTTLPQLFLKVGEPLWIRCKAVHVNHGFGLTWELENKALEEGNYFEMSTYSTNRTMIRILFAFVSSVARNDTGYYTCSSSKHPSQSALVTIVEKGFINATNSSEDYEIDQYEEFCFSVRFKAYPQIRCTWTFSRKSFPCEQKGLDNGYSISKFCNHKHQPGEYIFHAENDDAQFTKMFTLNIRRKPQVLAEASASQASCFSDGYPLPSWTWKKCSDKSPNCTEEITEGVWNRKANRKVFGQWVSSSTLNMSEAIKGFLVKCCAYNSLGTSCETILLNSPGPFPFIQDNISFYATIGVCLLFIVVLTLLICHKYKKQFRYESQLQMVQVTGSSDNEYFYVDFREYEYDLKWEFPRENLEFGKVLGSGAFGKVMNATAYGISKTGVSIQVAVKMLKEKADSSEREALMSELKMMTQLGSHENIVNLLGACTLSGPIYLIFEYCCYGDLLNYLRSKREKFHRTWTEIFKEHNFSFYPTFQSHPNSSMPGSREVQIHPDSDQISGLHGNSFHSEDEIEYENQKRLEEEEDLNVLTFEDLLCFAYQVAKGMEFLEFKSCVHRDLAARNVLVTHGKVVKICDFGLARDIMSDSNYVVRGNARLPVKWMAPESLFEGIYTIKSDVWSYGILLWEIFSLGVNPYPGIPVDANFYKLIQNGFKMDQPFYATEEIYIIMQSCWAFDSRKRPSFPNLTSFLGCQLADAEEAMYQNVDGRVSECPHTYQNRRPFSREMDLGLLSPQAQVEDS

ADP/ATP translocase 3 = molecular target: T2, ADP/ATP translocase 3 (Homo sapiens, UniProt P12236)
T2 sequence (P12236 whole entry): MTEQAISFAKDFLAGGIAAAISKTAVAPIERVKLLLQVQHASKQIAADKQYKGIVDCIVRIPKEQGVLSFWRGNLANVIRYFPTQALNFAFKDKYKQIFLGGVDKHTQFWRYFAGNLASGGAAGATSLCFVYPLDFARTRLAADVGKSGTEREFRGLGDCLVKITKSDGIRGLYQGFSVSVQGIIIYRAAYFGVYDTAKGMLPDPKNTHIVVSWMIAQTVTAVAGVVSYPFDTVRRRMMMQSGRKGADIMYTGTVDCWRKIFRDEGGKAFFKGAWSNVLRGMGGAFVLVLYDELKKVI

[4] = molecular target: T3, Cysteine--tRNA ligase, cytoplasmic (Homo sapiens, UniProt P49589)
T3 sequence (P49589 whole entry): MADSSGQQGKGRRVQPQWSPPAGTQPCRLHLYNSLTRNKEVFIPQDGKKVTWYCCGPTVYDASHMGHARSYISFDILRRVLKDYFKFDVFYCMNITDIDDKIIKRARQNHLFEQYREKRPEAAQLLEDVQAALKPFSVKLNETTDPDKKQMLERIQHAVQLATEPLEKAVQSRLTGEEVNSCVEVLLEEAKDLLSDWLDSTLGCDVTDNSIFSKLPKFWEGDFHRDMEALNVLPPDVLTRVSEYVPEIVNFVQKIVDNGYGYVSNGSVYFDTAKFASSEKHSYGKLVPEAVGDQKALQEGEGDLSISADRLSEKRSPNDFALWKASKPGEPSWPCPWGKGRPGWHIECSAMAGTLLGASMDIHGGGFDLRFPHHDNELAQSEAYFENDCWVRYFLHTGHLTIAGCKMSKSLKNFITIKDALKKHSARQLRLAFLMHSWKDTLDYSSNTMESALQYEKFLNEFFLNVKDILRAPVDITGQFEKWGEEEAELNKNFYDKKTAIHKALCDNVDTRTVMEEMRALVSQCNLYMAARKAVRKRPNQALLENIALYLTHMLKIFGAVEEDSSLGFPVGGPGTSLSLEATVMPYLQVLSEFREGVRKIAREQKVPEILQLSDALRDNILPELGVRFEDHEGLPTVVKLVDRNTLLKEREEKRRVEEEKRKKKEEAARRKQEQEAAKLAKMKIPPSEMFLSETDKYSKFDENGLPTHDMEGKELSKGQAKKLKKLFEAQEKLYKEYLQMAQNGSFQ
Also: in the data inactive means no Kd found up to 30 µM.

Ribosomal protein S6 kinase alpha-4, sequence (O75676 whole entry): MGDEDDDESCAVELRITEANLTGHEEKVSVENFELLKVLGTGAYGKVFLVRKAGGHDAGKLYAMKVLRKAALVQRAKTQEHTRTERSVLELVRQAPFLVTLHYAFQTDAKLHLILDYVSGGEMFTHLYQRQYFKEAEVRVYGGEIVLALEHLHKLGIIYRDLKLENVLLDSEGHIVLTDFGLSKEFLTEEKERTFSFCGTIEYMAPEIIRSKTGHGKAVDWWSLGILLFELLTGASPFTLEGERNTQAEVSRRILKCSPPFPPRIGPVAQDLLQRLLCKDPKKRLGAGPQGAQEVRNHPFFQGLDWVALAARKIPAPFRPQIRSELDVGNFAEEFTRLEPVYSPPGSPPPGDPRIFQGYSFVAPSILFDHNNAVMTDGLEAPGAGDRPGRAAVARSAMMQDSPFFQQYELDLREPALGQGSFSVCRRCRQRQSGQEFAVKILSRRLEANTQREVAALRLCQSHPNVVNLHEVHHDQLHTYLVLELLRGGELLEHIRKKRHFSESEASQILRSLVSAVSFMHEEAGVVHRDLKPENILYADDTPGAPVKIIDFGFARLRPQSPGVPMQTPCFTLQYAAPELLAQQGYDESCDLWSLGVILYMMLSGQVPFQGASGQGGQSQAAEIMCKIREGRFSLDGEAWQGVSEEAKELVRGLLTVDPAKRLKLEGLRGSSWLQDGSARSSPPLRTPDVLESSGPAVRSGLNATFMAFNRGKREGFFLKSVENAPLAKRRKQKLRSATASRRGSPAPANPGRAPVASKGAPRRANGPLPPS
Serine/threonine-protein kinase pim-1, sequence (P11309 whole entry): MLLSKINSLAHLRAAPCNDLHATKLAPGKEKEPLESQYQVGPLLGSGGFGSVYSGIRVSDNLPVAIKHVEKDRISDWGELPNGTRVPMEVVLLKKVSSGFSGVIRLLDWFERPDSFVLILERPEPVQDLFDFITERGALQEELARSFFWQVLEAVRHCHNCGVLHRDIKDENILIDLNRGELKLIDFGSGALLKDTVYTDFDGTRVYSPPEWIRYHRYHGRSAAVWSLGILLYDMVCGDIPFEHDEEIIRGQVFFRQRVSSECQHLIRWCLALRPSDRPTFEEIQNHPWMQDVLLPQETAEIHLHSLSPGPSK

Row | Kd [1] | Kd [2] | Kd [3] | Kd (ADP/ATP translocase 3) | Kd [4] | SMILES
1 | 1.46 µM (active) | > 30 µM (inactive) | 0.148 µM (active) | > 30 µM (inactive) | > 30 µM (inactive) | CCNC(=O)C#Cc1ccc2c(c1)NC(=O)/C2=C(\Nc1ccc(CN(C)C)cc1)c1ccccc1
2 | > 30 µM (inactive) | > 30 µM (inactive) | 7.04 µM (active) | > 30 µM (inactive) | > 30 µM (inactive) | Cc1nc2cc(-c3nn(C(C)C)c4ncnc(N)c34)ccc2o1
3 | > 30 µM (inactive) | > 30 µM (inactive) | 0.465 µM (active) | > 30 µM (inactive) | > 30 µM (inactive) | COCc1c(-c2ccc(NC(=O)Nc3cc(C(F)(F)F)ccc3F)c(F)c2)c2c(N)ncnn2c1CN1CCOCC1
4 | > 30 µM (inactive) | > 30 µM (inactive) | > 30 µM (inactive) | > 30 µM (inactive) | > 30 µM (inactive) | Cc1nc(NC(=O)N2CCC[C@H]2C(N)=O)sc1-c1ccnc(C(C)(C)C(F)(F)F)c1 [ALPELISIB]
5 | > 30 µM (inactive) | > 30 µM (inactive) | > 30 µM (inactive) | > 30 µM (inactive) | > 30 µM (inactive) | Cc1cc(C(=O)NOCCO)c(Nc2ccc(I)cc2F)n(C)c1=O [AZD-8330]
6 | > 30 µM (inactive) | > 30 µM (inactive) | > 30 µM (inactive) | > 30 µM (inactive) | > 30 µM (inactive) | Cn1cnc2c(F)c(Nc3ccc(Br)cc3F)c(C(=O)NOCCO)cc21 [BINIMETINIB]
7 | > 30 µM (inactive) | > 30 µM (inactive) | > 30 µM (inactive) | > 30 µM (inactive) | > 30 µM (inactive) | COCC(=O)NC/C=C/c1ccc2ncnc(Nc3ccc(Oc4ccc(C)nc4)c(C)c3)c2c1 [CP-724714]
8 | > 30 µM (inactive) | > 30 µM (inactive) | > 30 µM (inactive) | > 30 µM (inactive) | > 30 µM (inactive) | NC1(c2ccc(-c3nc4ccn5c(=O)[nH]nc5c4cc3-c3ccccc3)cc2)CCC1 [MK-2206]
9 | > 30 µM (inactive) | > 30 µM (inactive) | > 30 µM (inactive) | > 30 µM (inactive) | > 30 µM (inactive) | CN(C[C@@H]1COCCO1)S(=O)(=O)Nc1ccc2ccc3ncc(-c4cnn(C)c4)cc3c(=O)c2c1 [MK-2461]
10 | > 30 µM (inactive) | > 30 µM (inactive) | > 30 µM (inactive) | > 30 µM (inactive) | > 30 µM (inactive) | Cc1cnc(NC(=O)Nc2cc(Br)c(C)cc2OC[C@@H]2CNCCO2)cn1 [RABUSERTIB]
11 | > 30 µM (inactive) | > 30 µM (inactive) | > 30 µM (inactive) | > 30 µM (inactive) | > 30 µM (inactive) | N#CC1(c2ccc(NC(=O)c3cccnc3NCc3ccncc3)cc2)CCCC1 [RIVOCERANIB]

The remaining lines, values behind:

Row | SMILES | Kd [1] | Kd [2] | Kd [3] | Kd (ADP/ATP translocase 3) | Kd [4]
12 | C=CC(=O)N1CCC[C@H](n2c(=O)n(-c3ccc(Oc4ccccc4)cc3)c3c(N)ncnc32)C1 | > 30 µM (inactive) | > 30 µM (inactive) | > 30 µM (inactive) | > 30 µM (inactive) | > 30 µM (inactive)
13 | Nc1ncnc2c1c(-c1cccc(OCc3ccccc3)c1)cn2[C@H]1C[C@@H](CN2CCC2)C1 [AEW-541] | > 30 µM (inactive) | > 30 µM (inactive) | > 30 µM (inactive) | > 30 µM (inactive) | > 30 µM (inactive)
14 | COc1cc([C@@H]2c3cc4c(cc3[C@H](O)[C@H]3COC(=O)[C@@H]23)OCO4)cc(OC)c1OC [AXL-1717] | > 30 µM (inactive) | > 30 µM (inactive) | > 30 µM (inactive) | > 30 µM (inactive) | > 30 µM (inactive)
15 | CCn1c(C(=O)N(C2CC2)C2CC2)cc2c3c(ncn3C)c(Nc3cc(C)n(C)n3)nc21 [BMS-911543] | > 30 µM (inactive) | > 30 µM (inactive) | > 30 µM (inactive) | > 30 µM (inactive) | > 30 µM (inactive)
16 | COc1cc2ncnc(Oc3cccc(NC(=O)Nc4cc(C(C)(C)C(F)(F)F)on4)c3)c2cc1OC [CEP-32496] | > 30 µM (inactive) | > 30 µM (inactive) | 0.55 µM (active) | > 30 µM (inactive) | > 30 µM (inactive)
17 | Cc1cc(Nc2ncc(Cl)c(Nc3ccccc3S(=O)(=O)C(C)C)n2)c(OC(C)C)cc1C1CCNCC1 [CERITINIB] | > 30 µM (inactive) | > 30 µM (inactive) | 4.26 µM (active) | > 30 µM (inactive) | > 30 µM (inactive)
18 | COc1c(OCCCN2CCOCC2)ccc2c1N=C(NC(=O)c1cnc(N)nc1)N1CCN=C21 [COPANLISIB] | > 30 µM (inactive) | > 30 µM (inactive) | > 30 µM (inactive) | > 30 µM (inactive) | > 30 µM (inactive)
19 | C#Cc1cccc(Nc2ncnc3cc(OC)c(OCCCCCCC(=O)NO)cc23)c1 [CUDC-101] | > 30 µM (inactive) | > 30 µM (inactive) | > 30 µM (inactive) | > 30 µM (inactive) | > 30 µM (inactive)
20 | Cc1cccc(-c2nn3c(c2-c2ccnc4ccc(C(N)=O)cc24)CCC3)n1 [GALUNISERTIB] | > 30 µM (inactive) | > 30 µM (inactive) | > 30 µM (inactive) | > 30 µM (inactive) | > 30 µM (inactive)
21 | CNC(=O)c1cccc2cc(Oc3ccnc4cc(OCC5(N)CC5)c(OC)cc34)ccc12 [LUCITANIB] | > 30 µM (inactive) | > 30 µM (inactive) | > 30 µM (inactive) | > 30 µM (inactive) | > 30 µM (inactive)
22 | CNC(=O)c1nn(C)c2c1C(C)(C)Cc1cnc(Nc3ccc(N4CCN(C)CC4)cc3)nc1-2 [MILCICLIB] | > 30 µM (inactive) | > 30 µM (inactive) | 0.054 µM (active) | > 30 µM (inactive) | > 30 µM (inactive)
23 | Cn1cc(-c2cnc3ccc4ccc(CS(=O)(=O)NCc5ccccn5)cc4c(=O)c3c2)cn1 [MK-8033] | > 30 µM (inactive) | > 30 µM (inactive) | > 30 µM (inactive) | > 30 µM (inactive) | > 30 µM (inactive)
24 | FC(F)(F)c1ccc(/C=C/c2nc(COc3ccc(CCCCn4ccnn4)cc3)co2)cc1 [MUBRITINIB] | > 30 µM (inactive) | > 30 µM (inactive) | > 30 µM (inactive) | > 30 µM (inactive) | > 30 µM (inactive)
25 | CCOc1cc2ncc(C#N)c(Nc3ccc(F)c(Cl)c3)c2cc1NC(=O)/C=C/CN(C)C [PELITINIB] | > 30 µM (inactive) | > 30 µM (inactive) | > 30 µM (inactive) | > 30 µM (inactive) | > 30 µM (inactive)
26 | CCCCCCCCCCCCCCCCCCOP(=O)([O-])OC1CC[N+](C)(C)CC1 [PERIFOSINE] | > 30 µM (inactive) | > 30 µM (inactive) | > 30 µM (inactive) | > 30 µM (inactive) | > 30 µM (inactive)
27 | O=c1[nH]ccc2cc(OC3CCNCC3)ccc12 [SAR-407899 FREE BASE] | > 30 µM (inactive) | > 30 µM (inactive) | > 30 µM (inactive) | > 30 µM (inactive) | > 30 µM (inactive)
